Experimental data published in patent US20250257077A1, “BRIDGED BICYCLIC HETEROCYCLOALKYL PYRIDO-[3,4-d]PYRIDAZINE AMINE DERIVATIVES USEFUL AS NLRP3 INHIBITORS” (Ventus Therapeutics U.S., Inc., priority 2022, published 2025).
In brackets after ≈: the same amount, converted by molar mass. Read-outs that look alike come from different tables or passages of the source.

Legend:
human NLRP3 = biological target: T1, human NLRP3 (Homo sapiens, UniProt Q96P20); assay: Human Whole Blood (hWB) NLRP3 Assay; type: cell-based; details: LPS priming, ATP activation, IL-1β levels
T1 construct: Human whole blood is drawn from healthy volunteers after obtaining written informed consent; from tissue
Experimental: (ii) Human Whole Blood (hWB) NLRP3 Assay
Human whole blood is drawn from healthy volunteers after obtaining written informed consent. Heparin lithium coated tubes are used to collect blood from volunteers. Blood samples are distributed on 96 well plates using 90 μl per well. Priming is performed by adding 5 μl of LPS (026: B6; Sigma L-2654) at a final concentration of 1 μg/ml for 4.5 hours in a humidified incubator with 37° C. 5% CO2. Thirty minutes prior to NLRP3 activation, 5 μl of a 20× compound solution or vehicle (2% dimethylsulfoxide (DMSO)) is added to each well and plates were incubated on a shaker (450 rpm) in a humidified incubator with 37° C., 5% CO2. Activation is then performed by adding 3.3 μl of a 31× ATP solution per well. At the end of the 30 minutes stimulation, the plates are centrifuged (800 g, 10 min, room temperature) and the plasma from each well is frozen at −80° C. IL-1β levels in the supernatant were analyzed using a mesoscale discovery assay (MSD K151TUK) according to the manufacturers’ instructions.

[1] = Solubility Protocol in Phosphate Buffered Saline (PBS); type: physicochemical; details: for solubility kinetic at 2 h / solubility at 2 h: phosphate buffered saline (PBS), 18 °C, kinetic from dmso stock; for solubility kinetic at 2 h: aqueous buffer; for solubility kinetic at 2 h / Sol (PBS): PBS pH 7.4, 2 hours at room temperature, kinetic solubility; for solubility at 2 h: pH 7.4, aqueous buffer
Experimental: (vi) Solubility Protocol in Phosphate Buffered Saline (PBS)
The kinetic solubility of test compounds and control compounds was measured in commercial phosphate buffered saline (PBS), pH 7.4 (Wisent, Canada).
Briefly, a stock solution (20 mM DMSO for controls, and 10 mM DMSO for test compounds) was combined with PBS buffer to reach a targeted concentration of 400 μM for controls and 200 μM for test compounds. The spiked-PBS mixtures were then agitated on a VX-2500 multi-tube vortexer (VWR) for 2 hours at room temperature (18° C.). Following agitation, the samples were filtered on a glass fiber filter (1 μm) and the eluates were diluted 400-fold with a mixture of acetonitrile:water (1:1). Solubility determination was then performed against one standard sample prepared in high organic content at the expected top concentration. The lower limit of quantification was arbitrarily set at 1 μM (400-fold dilution of the top concentration) for assay controls, and 0.5 μM for test compounds. On each experimental run, nicardipine and imipramine were assessed as reference compounds for low and high solubility, respectively. All samples were assessed in triplicate and analyzed by LC-MS/MS (using a CTC PAL autosampler, Thermo Accela UPLC, and a Thermo Quantum mass spectrometer) using electrospray ionization against standards prepared in the same matrix

[2] = Mouse Hepatocyte Stability Assay; type: in vitro ADME; details: mouse hepatocytes, 37° C.; read-out: Hep (mouse) (t½ min)
Experimental: (§1) (v) Mouse and Human Hepatocyte Stability Assays
(§2) A hepatocyte stability assay is a laboratory-based method used to determine the metabolic stability of a compound in hepatocytes (liver cells). This assay provides valuable information about how quickly a drug is metabolized in the liver and can be used to assess its potential effectiveness and safety in drug discovery.
(§3) In the assay, cither human or mouse hepatocytes are incubated with the test compound at a controlled temperature of 37° C., for different time periods (e.g., 5, 15, 30, 60, and 120 minutes). At each time point during the incubation, samples are taken, the reaction is terminated, and the amount of test compound remaining analyzed using LC-MS/MS to monitor the disappearance of the test compound over time (Gradient). […] See, e.g., Coe et al., Methods in Pharmacology & Toxicology (2008) 151.

[3] = Brain Levels (Kp and Kpu,u); type: in vivo, CDI mice; details: for Kp at 24 h: mice dosed at 20 mpk PO, whole brain AUC over 24 h divided by plasma AUC
Experimental: (iv) Brain Levels (Kp and Kpu,u)—NLRP3
The in vivo total brain to plasma ratio was assessed in CDI mice after oral administration of the compound. Blood was collected at several timepoints up to 24 h, and transferred into plastic micro centrifuge tubes with EDTA-K2 as anticoagulant. Blood samples were centrifuged at 4000 g for 5 minutes at 4° C., to obtain plasma, then immediately frozen and stored at −75±15° C., prior to analysis. Animals were terminally anaesthetized with a rising concentration of CO2 gas at about 1 minute. At selected timepoints, whole brains were removed from the skull, rinsed in cold PBS to remove blood, dried with clean gauze, then frozen in liquid nitrogen and kept at −75±15° C. before analysis. At the time of analysis, brain samples were homogenized with PBS by tissue weight (g) to PBS volume (mL) ratio 1:3.
Plasma and brain drug levels were quantified by LC/MS/MS on an AB Sciex Triple Quad 5500+instrument, after separation on a HALO 160 A ES-C18, 2.7 μm 2.1×50 mm column. Quantitation was performed using a calibration curve prepared in blank plasma or blank brain homogenate. The software WinNonlin (Phoenix™) was used for pharmacokinetic analysis from the concentrations versus time data, including the AUCinf and AUClast. The Kp ratio (total brain concentration over total plasma concentration) was calculated as (AUCtot,br)/(AUCtot,pl).
The unbound brain exposure was assessed as Kpuu, which is the free brain/free plasma concentration ratio (Cu,bt/Cu,pl). The Cu,br/Cu,pl ratios were obtained from in vivo total brain to plasma ratios (Ctot,br/Ctot,pl) by using in vitro determined Fu,br and Fu,pl.
Plasma protein binding and brain homogenate protein binding were measured by equilibrium dialysis in a HTDialysis plate. The dialysis membranes were soaked in ultrapure water for 60 minutes to separate strips, then in 20% ethanol for 20 minutes, finally in dialysis buffer for 20 minutes. The dialysis set up was assembled according to the manufacturer's instruction. Each cell received 150 μL of plasma or brain homogenate spiked with 1 mM of compound, and dialyzed against an equal volume of dialysis buffer (PBS). The dialysis plate was sealed and incubated in an incubator at 37° C. with 5% CO2 at 100 rpm for 6 hours. At the end of incubation, compound concentration was measured in both chambers by LC-MS/MS on a Triple Quad™ 5500 from AB Inc after separation on a XSelect Hss T3.2.5μ (2.1×30 mm) column. Free fraction (Fu) was calculated as (Peak Area Ratio buffer chamber/Peak Area Ratio plasma chamber). Kpuu=(AUCtot,br×Fu,br)/([…])
The Kpu,u was then calculated upon correcting this kp value with mouse plasma protein binding and mouse brain homogenates binding.
A Kpu,u value >0.3 is considered brain penetrant, and a Kpu,u value ≤0.3 is not considered brain penetrant. When the Kpu,u value is not determined, the Kp value may be useful as a metric of potential brain penetrance if the Kp value is >0.3.

[4] = Human Hepatocyte Stability Assay; type: in vitro ADME; details: human hepatocytes, 37° C.; read-out: Hep (human) (t½ min)
Experimental: as §1, §2, §3

[5] = CDI, mouse, brain (whole brain homogenate) relative to plasma, oral, 20 mpk, brain levels, mice
[6] = CDI, mouse, brain (whole brain homogenate) relative to plasma, po, 20 mg/kg, Kp corrected with mouse plasma protein binding and mouse brain homogenates binding, 20 mpk PO, read-out: Kpu,u
[7] = CDI, mouse, brain (whole brain homogenate) relative to plasma, po, 20 mg/kg
[8] = CDI, mouse, brain (whole brain homogenate) relative to plasma, oral, 20 mpk, brain levels, unbound, mice, read-out: Kpu,u

T1 sequence (Q96P20 whole entry): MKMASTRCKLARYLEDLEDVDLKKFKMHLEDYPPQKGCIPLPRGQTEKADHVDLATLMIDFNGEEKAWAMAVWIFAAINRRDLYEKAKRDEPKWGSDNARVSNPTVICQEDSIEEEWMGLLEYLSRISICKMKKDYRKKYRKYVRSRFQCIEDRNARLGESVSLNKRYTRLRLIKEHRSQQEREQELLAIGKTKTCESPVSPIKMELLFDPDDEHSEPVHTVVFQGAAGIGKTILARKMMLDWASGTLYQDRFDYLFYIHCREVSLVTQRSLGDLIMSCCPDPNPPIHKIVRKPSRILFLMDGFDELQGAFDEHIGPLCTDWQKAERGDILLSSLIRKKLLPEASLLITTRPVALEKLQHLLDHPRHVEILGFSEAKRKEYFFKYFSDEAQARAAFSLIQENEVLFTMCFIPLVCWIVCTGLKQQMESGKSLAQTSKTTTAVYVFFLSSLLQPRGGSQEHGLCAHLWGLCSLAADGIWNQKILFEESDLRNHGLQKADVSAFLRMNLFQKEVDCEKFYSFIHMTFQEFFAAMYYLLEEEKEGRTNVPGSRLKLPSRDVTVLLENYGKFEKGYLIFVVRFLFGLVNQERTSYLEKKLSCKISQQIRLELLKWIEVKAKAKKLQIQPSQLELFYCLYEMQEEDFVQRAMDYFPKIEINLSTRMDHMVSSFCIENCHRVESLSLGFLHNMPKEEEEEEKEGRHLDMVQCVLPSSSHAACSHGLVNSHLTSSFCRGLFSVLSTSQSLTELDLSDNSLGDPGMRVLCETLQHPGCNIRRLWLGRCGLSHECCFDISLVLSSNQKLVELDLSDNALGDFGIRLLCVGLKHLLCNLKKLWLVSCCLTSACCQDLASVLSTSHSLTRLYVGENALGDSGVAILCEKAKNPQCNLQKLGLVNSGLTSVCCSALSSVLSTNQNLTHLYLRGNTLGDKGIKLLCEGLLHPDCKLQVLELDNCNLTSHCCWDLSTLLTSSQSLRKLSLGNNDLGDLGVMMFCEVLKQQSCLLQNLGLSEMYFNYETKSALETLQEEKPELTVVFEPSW

Row | Structure (SMILES) | IC50 (human NLRP3) | solubility kinetic at 2 h [1] | solubility at 2 h [1] | half-life [2] | Kp [3, 5] | Kpu,u [3, 6] | Kp at 24 h [3, 7] | Kpu,u ([3]; brain levels, unbound, mice) | half-life [4] | Sol (PBS) [1] | Kpu,u [3, 8]
1 | Oc1cc(Cl)ccc1-c1nnc(N[C@@H]2C[C@@H]3CC[C@H]2O3)c2cnccc12 (single isomer, unassigned) [Compound 3A*] | 1.16 µM | > 300 µM | > 300 µM | 2.17 h | 0.3 | 0.15 | 0.3 | 0.15 — | > 4 h |  | 
2 | Oc1cc(C(F)(F)F)ccc1-c1nnc(N[C@@H]2C[C@@H]3CC[C@H]2O3)c2cnccc12 (single isomer, unassigned) [Compound 10A*] | 0.92 µM |  | 2.1 µM (≈ 0.845 µg/mL) | 1.83 h | 0.46 | 0.49 | 0.46 | 0.49 | 3.17 h | 2.1 µM | 
3 | Cc1ccc(-c2nnc(N[C@H]3C[C@H]4CC[C@@H](C3)O4)c3cnccc23)c(O)c1 [Compound 2A*-r, 2-(4-(((1R,3r,5S)-8-oxabicyclo[3.2.1]octan-3-yl)amino)pyrido[3,4-d]pyridazin-1-yl)-5-methylphenol] | 0.33 µM |  | 1.9 µM (≈ 0.689 µg/mL) | 1.18 h | 0.27 | 0.16 | 0.27 |  | > 8 h | 1.9 µM | 0.16
4 | Oc1cc(C(F)(F)F)ccc1-c1nnc(N[C@H]2C[C@H]3CC[C@@H](C2)O3)c2cnccc12 [Compound 4A*-r, 2-(4-(((1R,3r,5S)-8-oxabicyclo[3.2.1]octan-3-yl)amino)pyrido[3,4-d]pyridazin-1-yl)-5-(trifluoromethyl)phenol] | 1.1 µM |  | 2.4 µM (≈ 0.999 µg/mL) | 3.33 h | 0.13 | 0.09 | 0.13 |  | > 8 h | 2.4 µM | 0.09
5 | Oc1cc(Cl)ccc1-c1nnc(N[C@H]2[C@@H]3CC[C@H]2COC3)c2cnccc12 [Compound 5A, 2-(4-(((1R,5S,8s)-3-oxabicyclo[3.2.1]octan-8-yl)amino)pyrido[3,4-d]pyridazin-1-yl)-5-chlorophenol] | 0.15 µM |  | 25 µM (≈ 9.57 µg/mL) | 2.67 h | 0.87 | 0.44 | 0.87 |  | > 4 h | 25 µM | 0.44
6 | Cc1ccc(-c2nnc(N[C@H]3[C@@H]4CC[C@H]3COC4)c3cnccc23)c(O)c1 [Compound 6A, 2-(4-(((1R,5S,8s)-3-oxabicyclo[3.2.1]octan-8-yl)amino)pyrido[3,4-d]pyridazin-1-yl)-5-methylphenol] | 0.2 µM | > 300 µM |  | 2.67 h |  | 0.51 | 0.76 |  | > 4 h | >300 µM | 

Now from value to compound:

Row | IC50 (human NLRP3) | solubility kinetic at 2 h [1] | solubility at 2 h [1] | half-life [2] | Kp [3, 5] | Kpu,u [3, 6] | Kp at 24 h [3, 7] | Kpu,u ([3]; brain levels, unbound, mice) | half-life [4] | Sol (PBS) [1] | Kpu,u [3, 8] | Structure (SMILES)
7 | 0.81 µM | 0.7 µM (≈ 0.279 µg/mL) |  | 3.83 h |  | 0.06 | 0.08 |  | > 4 h | 0.7 µM |  | Oc1cc(C(F)F)ccc1-c1nnc(N[C@H]2C[C@H]3CC[C@@H](C2)O3)c2cnccc12 [Compound 11A*-r, 2-(4-(((1R,3r,5S)-8-oxabicyclo[3.2.1]octan-3-yl)amino)pyrido[3,4-d]pyridazin-1-yl)-5-(difluoromethyl)phenol]
8 | 0.34 µM | 1.4 µM (≈ 0.583 µg/mL) |  | 1.67 h |  | 0.08 | 0.1 |  | 4.83 h | 1.4 µM |  | Oc1cc(C(F)(F)F)ccc1-c1nnc(N[C@H]2[C@@H]3CC[C@H]2COC3)c2cnccc12 [Compound 13A, 2-(4-(((1R,5S,8s)-3-oxabicyclo[3.2.1]octan-8-yl)amino)pyrido[3,4-d]pyridazin-1-yl)-5-(trifluoromethyl)phenol]
9 | 0.2 µM | 11 µM (≈ 4.38 µg/mL) |  | 2 h |  | 0.2 | 0.37 |  | > 8 h | 11 µM |  | Oc1cc(C(F)F)ccc1-c1nnc(N[C@H]2[C@@H]3CC[C@H]2COC3)c2cnccc12 [Compound 14A, 2-(4-(((1R,5S,8s)-3-oxabicyclo[3.2.1]octan-8-yl)amino)pyrido[3,4-d]pyridazin-1-yl)-5-(difluoromethyl)phenol]
10 | 0.34 µM | > 300 µM |  | 0.483 h |  | 0.45 | 0.41 |  | > 8 h | >300 µM |  | Cc1ccc(-c2nnc(N[C@H]3[C@@H]4CC[C@H]3COC4)c3cnccc23)c(O)c1F [Compound 15A, 6-(4-(((1R,5S,8s)-3-oxabicyclo[3.2.1]octan-8-yl)amino)pyrido[3,4-d]pyridazin-1-yl)-2-fluoro-3-methylphenol]
